Tested on: not listed separately
Experiment: DRUGMATRIX: Serotonin (5-Hydroxytryptamine) 5-HT3 radioligand binding (ligand: [3H] GR-65630)
Type: cell membranes, Membrane
Details: hek293; Not Active = under 50% inhibition at 10 µM

SMILES	IC50	Ki
CC1(C)[C@H](C(=O)O)N2C(=O)C[C@H]2S1(=O)=O [SULBACTAM]	Not Active	Not Active
Oc1ccc(/C=C/c2cc(O)cc(O)c2)cc1 [RESVERATROL]	Not Active	Not Active
O=C1CC[C@@]2(O)[C@H]3Cc4ccc(O)c5c4[C@@]2(CCN3CC2CC2)[C@H]1O5 [NALTREXONE]	Not Active	Not Active
Cc1nnc(NS(=O)(=O)c2ccc(N)cc2)s1 [SULFAMETHIZOLE]	Not Active	Not Active
C=CCc1ccc2c(c1)OCO2 [SAFROLE]	Not Active	Not Active
Cc1cn([C@H]2C=C[C@@H](CO)O2)c(=O)[nH]c1=O [STAVUDINE]	Not Active	Not Active
CC1=C(/C=C/C(C)=C/C=C/C(C)=C/C(=O)O)C(C)(C)CCC1 [TRETINOIN]	Not Active	Not Active
Nc1nc(N)c2nc(-c3ccccc3)c(N)nc2n1	Not Active	Not Active
CN1C(=O)OC(C)(C)C1=O [TRIMETHADIONE]	Not Active	Not Active
Cc1ccc(S(=O)(=O)NC(=O)NN2CCCCCC2)cc1 [TOLAZAMIDE]	Not Active	Not Active
O=C(O)c1cc(/N=N/c2ccc(S(=O)(=O)Nc3ccccn3)cc2)ccc1O [SULFASALAZINE]	Not Active	Not Active
CCN(CC)C(=S)SSC(=S)N(CC)CC	Not Active	Not Active
CS(=O)(=O)c1ccc(C2=C(c3ccccc3)C(=O)OC2)cc1 [ROFECOXIB]	Not Active	Not Active
Cc1cnc(NC(=O)C2=C(O)c3ccccc3S(=O)(=O)N2C)s1 [MELOXICAM]	Not Active	Not Active

Tested on: not listed separately
Experiment: DRUGMATRIX: Leukotriene, BLT (LTB4) radioligand binding (ligand: [3H]LTB4)
Type: cell membranes, Membrane
Details: u-937; Not Active = under 50% inhibition at 10 µM

SMILES	IC50	Ki
CC1(C)[C@H](C(=O)O)N2C(=O)C[C@H]2S1(=O)=O [SULBACTAM]	Not Active	Not Active
Oc1ccc(/C=C/c2cc(O)cc(O)c2)cc1 [RESVERATROL]	Not Active	Not Active
O=C1CC[C@@]2(O)[C@H]3Cc4ccc(O)c5c4[C@@]2(CCN3CC2CC2)[C@H]1O5 [NALTREXONE]	Not Active	Not Active
Cc1nnc(NS(=O)(=O)c2ccc(N)cc2)s1 [SULFAMETHIZOLE]	Not Active	Not Active
C=CCc1ccc2c(c1)OCO2 [SAFROLE]	Not Active	Not Active
Cc1cn([C@H]2C=C[C@@H](CO)O2)c(=O)[nH]c1=O [STAVUDINE]	Not Active	Not Active
CC1=C(/C=C/C(C)=C/C=C/C(C)=C/C(=O)O)C(C)(C)CCC1 [TRETINOIN]	Not Active	Not Active
Nc1nc(N)c2nc(-c3ccccc3)c(N)nc2n1	Not Active	Not Active
CN1C(=O)OC(C)(C)C1=O [TRIMETHADIONE]	Not Active	Not Active
Cc1ccc(S(=O)(=O)NC(=O)NN2CCCCCC2)cc1 [TOLAZAMIDE]	Not Active	Not Active
O=C(O)c1cc(/N=N/c2ccc(S(=O)(=O)Nc3ccccn3)cc2)ccc1O [SULFASALAZINE]	Not Active	Not Active
CS(=O)(=O)c1ccc(C2=C(c3ccccc3)C(=O)OC2)cc1 [ROFECOXIB]	Not Active	Not Active
Cc1cnc(NC(=O)C2=C(O)c3ccccc3S(=O)(=O)N2C)s1 [MELOXICAM]	Not Active	Not Active

Same assay, conditions: u-937; Not Active = under 50% inhibition at 10 µM; read-out: IC50

SMILES	IC50
CCN(CC)C(=S)SSC(=S)N(CC)CC	29.9 µM

Same assay, conditions: u-937; Not Active = under 50% inhibition at 10 µM; read-out: Ki

SMILES	Ki
CCN(CC)C(=S)SSC(=S)N(CC)CC	7.58 µM

Biological target: T1, Polyunsaturated fatty acid lipoxygenase ALOX15 (Oryctolagus cuniculus, UniProt P12530);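 also: inhibition of 15-lipoxygenase enzyme activity measured with linoleic acid as the substrate; in other assays of this panel Not Active means under 50% inhibition at 10 µM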
T1 sequence (P12530 whole entry): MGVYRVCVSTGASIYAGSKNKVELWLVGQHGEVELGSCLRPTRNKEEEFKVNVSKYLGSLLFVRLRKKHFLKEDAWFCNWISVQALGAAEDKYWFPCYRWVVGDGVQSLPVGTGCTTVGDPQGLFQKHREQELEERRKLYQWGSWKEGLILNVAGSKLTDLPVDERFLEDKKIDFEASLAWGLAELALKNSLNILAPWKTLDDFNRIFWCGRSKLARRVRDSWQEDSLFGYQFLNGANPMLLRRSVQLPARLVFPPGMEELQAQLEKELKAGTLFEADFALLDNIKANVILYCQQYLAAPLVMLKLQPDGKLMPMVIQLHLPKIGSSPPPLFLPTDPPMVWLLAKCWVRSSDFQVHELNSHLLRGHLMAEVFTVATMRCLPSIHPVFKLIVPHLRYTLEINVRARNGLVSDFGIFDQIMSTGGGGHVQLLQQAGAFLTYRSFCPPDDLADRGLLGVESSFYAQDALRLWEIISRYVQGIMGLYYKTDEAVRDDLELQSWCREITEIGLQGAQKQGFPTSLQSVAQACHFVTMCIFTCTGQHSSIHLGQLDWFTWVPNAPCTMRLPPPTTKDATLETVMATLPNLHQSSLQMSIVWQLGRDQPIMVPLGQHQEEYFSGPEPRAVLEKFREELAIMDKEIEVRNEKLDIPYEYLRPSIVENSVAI
Experiment: biochemical
Type: tissue-based, Reticulocytes
Details: read-out: IC50

SMILES	IC50
Cc1cc2c(s1)Nc1ccccc1N=C2N1CCN(C)CC1 [OLANZAPINE]	2.77 µM
Cc1ccc(S(=O)(=O)NC(=O)NN2CCCCCC2)cc1 [TOLAZAMIDE]	5.11 µM
CCN(CC)C(=S)SSC(=S)N(CC)CC	16.1 µM

Same assay, conditions: reticulocytes

SMILES	IC50
CC1(C)[C@H](C(=O)O)N2C(=O)C[C@H]2S1(=O)=O [SULBACTAM]	Not Active
Oc1ccc(/C=C/c2cc(O)cc(O)c2)cc1 [RESVERATROL]	Not Active
O=C1CC[C@@]2(O)[C@H]3Cc4ccc(O)c5c4[C@@]2(CCN3CC2CC2)[C@H]1O5 [NALTREXONE]	Not Active
Cc1nnc(NS(=O)(=O)c2ccc(N)cc2)s1 [SULFAMETHIZOLE]	Not Active
C=CCc1ccc2c(c1)OCO2 [SAFROLE]	Not Active
Cc1cn([C@H]2C=C[C@@H](CO)O2)c(=O)[nH]c1=O [STAVUDINE]	Not Active
CC1=C(/C=C/C(C)=C/C=C/C(C)=C/C(=O)O)C(C)(C)CCC1 [TRETINOIN]	Not Active
Nc1nc(N)c2nc(-c3ccccc3)c(N)nc2n1	Not Active
CN1C(=O)OC(C)(C)C1=O [TRIMETHADIONE]	Not Active
O=C(O)c1cc(/N=N/c2ccc(S(=O)(=O)Nc3ccccn3)cc2)ccc1O [SULFASALAZINE]	Not Active
CS(=O)(=O)c1ccc(C2=C(c3ccccc3)C(=O)OC2)cc1 [ROFECOXIB]	Not Active
Cc1cnc(NC(=O)C2=C(O)c3ccccc3S(=O)(=O)N2C)s1 [MELOXICAM]	Not Active
CNCCCC12CCC(c3ccccc31)c1ccccc12 [MAPROTILINE]	Not Active
CN(C)CCC=C1c2ccccc2COc2ccccc21 [DOXEPIN]	Not Active

Biological target: T2, C-C chemokine receptor type 4 (Homo sapiens, UniProt P51679); also: in other assays of this panel Not Active means under 50% inhibition at 10 µM
T2 sequence (P51679 whole entry): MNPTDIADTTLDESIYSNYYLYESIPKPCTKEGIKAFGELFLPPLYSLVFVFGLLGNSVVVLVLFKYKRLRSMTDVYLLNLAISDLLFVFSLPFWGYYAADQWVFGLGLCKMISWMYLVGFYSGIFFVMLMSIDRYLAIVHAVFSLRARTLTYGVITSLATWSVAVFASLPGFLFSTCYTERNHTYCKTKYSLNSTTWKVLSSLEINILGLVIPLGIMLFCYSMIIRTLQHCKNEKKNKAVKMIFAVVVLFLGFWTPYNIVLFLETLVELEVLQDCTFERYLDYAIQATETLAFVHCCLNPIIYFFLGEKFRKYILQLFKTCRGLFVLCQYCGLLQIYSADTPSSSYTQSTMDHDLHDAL
Experiment: not given
Type: cell membranes, Chem-1, Membrane
Details: chem-1

SMILES	IC50
Cc1cc2c(s1)Nc1ccccc1N=C2N1CCN(C)CC1 [OLANZAPINE]	Not Active
CC1(C)[C@H](C(=O)O)N2C(=O)C[C@H]2S1(=O)=O [SULBACTAM]	Not Active
Oc1ccc(/C=C/c2cc(O)cc(O)c2)cc1 [RESVERATROL]	Not Active
O=C1CC[C@@]2(O)[C@H]3Cc4ccc(O)c5c4[C@@]2(CCN3CC2CC2)[C@H]1O5 [NALTREXONE]	Not Active
Cc1nnc(NS(=O)(=O)c2ccc(N)cc2)s1 [SULFAMETHIZOLE]	Not Active
C=CCc1ccc2c(c1)OCO2 [SAFROLE]	Not Active
Cc1cn([C@H]2C=C[C@@H](CO)O2)c(=O)[nH]c1=O [STAVUDINE]	Not Active
CC1=C(/C=C/C(C)=C/C=C/C(C)=C/C(=O)O)C(C)(C)CCC1 [TRETINOIN]	Not Active
Nc1nc(N)c2nc(-c3ccccc3)c(N)nc2n1	Not Active
CN1C(=O)OC(C)(C)C1=O [TRIMETHADIONE]	Not Active
Cc1ccc(S(=O)(=O)NC(=O)NN2CCCCCC2)cc1 [TOLAZAMIDE]	Not Active
O=C(O)c1cc(/N=N/c2ccc(S(=O)(=O)Nc3ccccn3)cc2)ccc1O [SULFASALAZINE]	Not Active
CS(=O)(=O)c1ccc(C2=C(c3ccccc3)C(=O)OC2)cc1 [ROFECOXIB]	Not Active
Cc1cnc(NC(=O)C2=C(O)c3ccccc3S(=O)(=O)N2C)s1 [MELOXICAM]	Not Active
CNCCCC12CCC(c3ccccc31)c1ccccc12 [MAPROTILINE]	Not Active
CN(C)CCC=C1c2ccccc2COc2ccccc21 [DOXEPIN]	Not Active

Same assay, conditions: read-out: IC50

SMILES	IC50
CCN(CC)C(=S)SSC(=S)N(CC)CC	8.4 µM

Same assay, conditions: read-out: Ki

SMILES	Ki
CCN(CC)C(=S)SSC(=S)N(CC)CC	4.4 µM

Tested on: not listed separately
Experiment: DRUGMATRIX: Calcium Channel Type L, Phenylalkylamine radioligand binding (ligand: [3H] (-)-Desmethoxyverapamil (D-888))
Type: cell membranes, Rattus norvegicus, Wistar, Brain, Membrane
Details: Not Active = under 50% inhibition at 10 µM

SMILES	IC50	Ki
CC1(C)[C@H](C(=O)O)N2C(=O)C[C@H]2S1(=O)=O [SULBACTAM]	Not Active	Not Active
Oc1ccc(/C=C/c2cc(O)cc(O)c2)cc1 [RESVERATROL]	Not Active	Not Active
O=C1CC[C@@]2(O)[C@H]3Cc4ccc(O)c5c4[C@@]2(CCN3CC2CC2)[C@H]1O5 [NALTREXONE]	Not Active	Not Active
Cc1nnc(NS(=O)(=O)c2ccc(N)cc2)s1 [SULFAMETHIZOLE]	Not Active	Not Active
C=CCc1ccc2c(c1)OCO2 [SAFROLE]	Not Active	Not Active
Cc1cn([C@H]2C=C[C@@H](CO)O2)c(=O)[nH]c1=O [STAVUDINE]	Not Active	Not Active
CC1=C(/C=C/C(C)=C/C=C/C(C)=C/C(=O)O)C(C)(C)CCC1 [TRETINOIN]	Not Active	Not Active
Nc1nc(N)c2nc(-c3ccccc3)c(N)nc2n1	Not Active	Not Active
CN1C(=O)OC(C)(C)C1=O [TRIMETHADIONE]	Not Active	Not Active
Cc1ccc(S(=O)(=O)NC(=O)NN2CCCCCC2)cc1 [TOLAZAMIDE]	Not Active	Not Active
O=C(O)c1cc(/N=N/c2ccc(S(=O)(=O)Nc3ccccn3)cc2)ccc1O [SULFASALAZINE]	Not Active	Not Active
CCN(CC)C(=S)SSC(=S)N(CC)CC	Not Active	Not Active
CS(=O)(=O)c1ccc(C2=C(c3ccccc3)C(=O)OC2)cc1 [ROFECOXIB]	Not Active	Not Active
Cc1cnc(NC(=O)C2=C(O)c3ccccc3S(=O)(=O)N2C)s1 [MELOXICAM]	Not Active	Not Active

From ChEMBL document CHEMBL1909046, “DrugMatrix in vitro pharmacology data”
